Test [1] deals with EGFR (d746-750 (d19)/T790M) (Homo sapiens (Human), UniProt P00533, DEL746-750/T790M). The test can be described thus: Inhibitory activity for EGFR (d746-750 (d19)/T790M) kinase. It is filed as biochemical. The conditions noted are these: ATP 5 μM. The protocol:
1.3 Screening for Inhibitory Activity for EGFR (d746-750 (d19)/T790M) Kinase
(§1) A 50 ng/μL EGFR (d746-750/T790M, Carna) stock solution was diluted with a kinase buffer (50 mM HEPES, 10 mM MgCl2, 2 mM DTT, 1 mM EGTA, 0.01% Tween 20), and 6 μL of 1.67× working solution at 0.005 ng/μL (final concentration: 0.003 ng/μL) was added to each well. Different compounds dissolved in DMSO were added to the wells using a nanoliter pipettor, resulting in the final concentrations of the compounds of 10 nM to 0.0024 nM (4-fold gradient for 7 concentrations in total), and blank control wells (without enzyme) and negative control wells (with enzyme, plus vehicle DMSO) were set, 2 replicate wells for each concentration. After enzyme was reacted with the compound or vehicle for 30 min, 5×ATP at 25 μM (final concentration: 5 μM, Sigma) prepared with a kinase buffer was mixed with 5× substrate at 0.5 μM (final concentration: 0.1 μM, ULight-poly GT, PerkinElmer) at a ratio of 1:1 (v:v), and the mixture was added to each well at 4 μL/well. After being sealed with a film, the plate was incubated at room temperature for 2 h, and then 5 μL of 4×EDTA at 40 mM (final concentration: 10 mM) was added to each well. After the plate was incubated for 5 min at room temperature, 5 μL of 4× detection reagent at 8 nM (final concentration: 2 nM, Eu-anti-phospho-tyrosine antibody, PerkinElmer) was added to each well. After being incubated at room temperature for 1 h, the plate was read using a PerkinElmer Envision multi-mode microplate reader (excitation: 320 nm, emission: 665 nm), and IC50 was calculated by four-parameter fitting.

In test [2] the target is EGFR (d746-750/T790M/C797S) (Homo sapiens (Human), UniProt P00533, C797S/DEL746-750/T790M). The test can be described thus: Inhibitory activity for EGFR (d746-750/T790M/C797S) kinase. It counts as biochemical. The conditions noted are these: ATP 5 μM; read-out: EGFR(d19/T790M/C797S) (IC50). The procedure: 1.5 Screening for Inhibitory Activity for EGFR (d746-750/T790M/C797S) Kinase
as §1, with “(d746-750/T790M/C797S, BPS)” for “(d746-750/T790M, Carna)”, “0.05” for “0.005”, “0.03” for “0.003”

Test [3] has as its system BAF3-EGFR (L858R/T790M/C797S) cells. The test can be described thus: Inhibition of proliferation of BAF3-EGFR (L858R/T790M/C797S) cells, CCK-8. It is filed as cell-based. The conditions noted are these: Ba/F3 EGFR, 72 h, read-out: BAF3(EGFR T790M L858R C797S) cell inhibitory activity IC50. The protocol:
A flask of EGFR (L858R/T790M/C797S) cells in the logarithmic growth phase and good conditions was taken, and the cells were collected and added to a centrifuge tube. 20 μL of cells were taken and counted, and the required number of cells (mL) was pipetted and centrifuged at 1200 rpm for 3 min. The supernatant was discarded, and an appropriate amount of plating medium (RPMI medium+10% FBS) was added to adjust the cell density to 1.5×10^5 cells/mL. The cells were seeded on a 96-well plate at 100 μL/well using a multi-channel pipette and cultured in a cell incubator at 37° C., 5% CO2 with saturated humidity. After overnight incubation, compounds were loaded using a nanoliter pipettor, 2 duplicate wells were set for each concentration, and cells without compound added were used as negative controls.
Inhibition rate (%)=(mean value of negative control group-mean value of experimental group)/(mean value of negative control group−mean value of blank group)×100%.
A dose-response curve was fitted by four-parameter analysis, with the logarithm of compound concentration serving as abscissa and inhibition rate serving as ordinate, such that IC50 was calculated.

The record followed here is patent US20250034165A1, “COMPOUND CONTAINING CYCLOALKYL OR HALOALKYL” (CHIA TAI TIANQING PHARMACEUTICAL GROUP CO., LTD., priority 2021, published 2025).

EGFR (d746-750 (d19)/T790M), sequence (P00533 other isoform, or with tags, fused parts or gaps T790M/del 1-668/del 746-750 limits assumed): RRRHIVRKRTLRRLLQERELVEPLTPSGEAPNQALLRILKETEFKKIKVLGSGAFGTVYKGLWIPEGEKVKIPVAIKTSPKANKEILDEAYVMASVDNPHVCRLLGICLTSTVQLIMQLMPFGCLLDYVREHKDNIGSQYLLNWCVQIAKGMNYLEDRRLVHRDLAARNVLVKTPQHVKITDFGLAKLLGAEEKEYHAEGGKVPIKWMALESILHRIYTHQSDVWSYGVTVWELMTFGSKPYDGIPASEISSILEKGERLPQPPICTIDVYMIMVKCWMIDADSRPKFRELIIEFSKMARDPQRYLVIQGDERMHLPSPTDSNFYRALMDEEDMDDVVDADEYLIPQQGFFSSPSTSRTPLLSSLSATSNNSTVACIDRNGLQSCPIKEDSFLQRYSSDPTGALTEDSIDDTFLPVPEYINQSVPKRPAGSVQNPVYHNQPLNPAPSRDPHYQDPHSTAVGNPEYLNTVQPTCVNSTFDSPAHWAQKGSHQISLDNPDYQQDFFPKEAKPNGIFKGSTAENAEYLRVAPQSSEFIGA
EGFR (d746-750/T790M/C797S), sequence (P00533 other isoform, or with tags, fused parts or gaps T790M/C797S/del 1-694/del 746-750 limits assumed): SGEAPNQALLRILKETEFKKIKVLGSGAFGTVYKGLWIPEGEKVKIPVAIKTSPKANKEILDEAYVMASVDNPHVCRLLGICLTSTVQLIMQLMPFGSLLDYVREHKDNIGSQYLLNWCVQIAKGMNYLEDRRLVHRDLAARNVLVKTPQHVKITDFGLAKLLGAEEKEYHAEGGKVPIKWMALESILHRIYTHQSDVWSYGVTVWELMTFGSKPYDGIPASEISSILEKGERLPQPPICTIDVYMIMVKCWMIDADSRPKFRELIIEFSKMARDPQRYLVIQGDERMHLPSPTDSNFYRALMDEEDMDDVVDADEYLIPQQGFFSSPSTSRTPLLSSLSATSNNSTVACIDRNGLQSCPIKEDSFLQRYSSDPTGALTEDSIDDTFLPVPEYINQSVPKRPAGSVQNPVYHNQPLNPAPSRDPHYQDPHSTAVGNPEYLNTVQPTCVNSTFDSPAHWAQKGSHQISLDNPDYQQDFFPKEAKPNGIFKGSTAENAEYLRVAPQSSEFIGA

With `Cc1cc2cc(n1)-c1cnn(C)c1OCCC[C@@H](C1CC1)CN1/C(=N/C2=O)Nc2cc(NC3CC(N(C)C)C3)ccc21` (some centres unmarked) [Example 93], in test [1], the IC50 amounted to 110 pM.
For the molecule `Cc1cc2cc(n1)-c1cnn(C)c1OCCC[C@@H](C1CC1)CN1/C(=N/C2=O)Nc2cc(NCCN3CCOCC3)ccc21` [Example 3], the results for the IC50 in test [2] and in test [1] were 28 pM and 14 pM, respectively.
As for `Cc1cc2cc(n1)-c1cnn(C)c1OCCC[C@@H](C1CC1)CN1/C(=N/C2=O)Nc2cc(NC[C@H]3COCCO3)ccc21` [Example 19], the figures for the IC50 in test [2] and in test [1] were 28 pM and 15 pM, respectively.
For `Cc1cc2cc(n1)-c1cnn(C3CC3)c1OCCC[C@@H](C)CN1/C(=N/C2=O)Nc2cc(NCCN3CCOCC3)ccc21` [Example 5] the same measures were 74 pM and 50 pM.
For the molecule `Cc1cc2cc(n1)-c1cnn(C)c1OCCC[C@@H](C1CC1)CN1/C(=N/C2=O)Nc2ccc(NC(=O)CCCN(C)C)cc21` [Example 113], in test [2], the IC50 worked out at 66 pM.
Turning to `Cc1cc2cc(n1)-c1cnn(C)c1OCCC[C@@H](C1CC1)CN1/C(=N/C2=O)Nc2ccc(NCCCN3CCCC3)cc21` [Example 84], the results for the IC50 in test [2] and in test [1] were 42 pM and 18 pM, respectively.
For `Cc1cc2cc(n1)-c1cnn(C)c1OCCC[C@@H](C1CC1)CN1/C(=N/C2=O)Nc2cc(N[C@@H](C)CCN3CCCCC3)ccc21` [Example 140], the IC50 in test [2] was 77 pM; in test [3], less than 5000 pM.
As for `Cc1cc2cc(n1)-c1cnn(C)c1OCCC[C@@H](C1CC1)CN1/C(=N/C2=O)Nc2cc(N[C@@H]3CCOC3)ccc21` [Example 43], the IC50 in test [2] came to 26 pM; in test [1], 15 pM.
`Cc1cc2cc(n1)-c1cnn(C)c1OCCC[C@@H](C1CC1)CN1/C(=N/C2=O)Nc2cc(NC3CC(F)C3)ccc21` (some centres unmarked) [Example 94] showed an IC50 in test [1] of 750 pM.
Take `Cc1cc2cc(n1)-c1cnn(C)c1OCCC[C@@H](C1CC1)CN1/C(=N/C2=O)Nc2cc(NC3(C)CNC3)ccc21` [Example 34]: the IC50 came to 16 pM in test [2] and 14 pM in test [1].
As for `Cc1cc2cc(n1)-c1cnn(C)c1OCCC[C@@H](C1CC1)CN1/C(=N/C2=O)Nc2cc(NC3COC3(C)C)ccc21` (some centres unmarked) [Example 30], the IC50 in test [2] stood at 46 pM; in test [1], 30 pM.
For `Cc1cc2cc(n1)-c1cnn(C3CC3)c1OCCC[C@@H](C)CN1/C(=N/C2=O)Nc2cc(N[C@@H]3CCOC3)ccc21` [Example 13], the IC50 in test [2] amounted to 110 pM; in test [1], 58 pM.
As for `Cc1cc2cc(n1)-c1cnn(C)c1OCCC[C@@H](C1CC1)CN1/C(=N/C2=O)Nc2ccc(NC3CCCC3)cc21` [Example 87], the values for the IC50 in test [2] and in test [1] were 318 pM and 58 pM, respectively.
As for `Cc1cc2cc(n1)-c1cnn(C)c1OCCC[C@@H](C1CC1)CN1/C(=N/C2=O)Nc2cc(N[C@H](C)CN3CCCCC3)ccc21` [Example 137], the IC50 in test [2] was 85 pM; in test [3] it was less than 5000 pM.
Turning to `Cc1cc2cc(n1)-c1cnn(C)c1OCCC[C@@H](C1CC1)CN1/C(=N/C2=O)Nc2cc(NCCCCN(C)C)ccc21` [Example 51], the IC50 in test [2] is 20 pM; in test [1], 13 pM; in test [3], less than 5000 pM.
With `Cc1cc2cc(n1)-c1cnn(C)c1OCCC[C@@H](C1CC1)CN1/C(=N/C2=O)Nc2ccc(N3CC[C@H](O)C3)cc21` [Example 21], the results for the IC50 in test [2] and in test [1] were 59 pM and 32 pM, respectively.
For `Cc1cc2cc(n1)-c1cnn(C3CC3)c1OCCC[C@@H](C)CN1/C(=N/C2=O)Nc2ccc(N3CC[C@H](O)C3)cc21` [Example 16], the IC50 in test [2] came to 63 pM; in test [1], 60 pM.
On to `[2H]C([2H])([2H])N(C[C@@H](C)Nc1ccc2c(c1)N1C[C@H](C3CC3)CCCOc3c(cnn3C)-c3cc(cc(C)n3)C(=O)/N=C/1N2)C([2H])([2H])[2H]` [Example 145], for which the IC50 in test [3] was less than 5000 pM.
Take `Cc1cc2cc(n1)-c1cnn(C3CC3)c1OCCC[C@@H](C)CN1/C(=N/C2=O)Nc2cc(NC3CCN(C)CC3)ccc21` [Example 12]: the IC50 in test [2] was found to be 170 pM; in test [1], 150 pM.
Turning to `Cc1cc2cc(n1)-c1cnn(C)c1OCCC[C@@H](C1CC1)CN1/C(=N/C2=O)Nc2cc(N[C@@H]3CC[C@H](O)C3)ccc21` [Example 150], the IC50 in test [3] is less than 5000 pM.
For the molecule `Cc1cc2cc(n1)-c1cnn(C3CC3)c1OCCC[C@@H](C)CN1/C(=N/C2=O)Nc2cc(NC[C@H]3COCCO3)ccc21` [Example 14], the IC50 in test [2] was found to be 100 pM; in test [1], 68 pM.
For the molecule `Cc1cc2cc(n1)-c1cnn(C)c1OCCC[C@@H](C1CC1)CN1/C(=N/C2=O)Nc2cc(N[C@@H]3CCCOC3)ccc21` [Example 18], the IC50 in test [2] stood at 42 pM; in test [1] it was 20 pM.
On to `Cc1cc2cc(n1)-c1cnn(C)c1OCCC[C@@H](C1CC1)CN1/C(=N/C2=O)Nc2cc(N[C@@H](C)CN3CCCCC3)ccc21` [Example 138], for which the IC50 in test [2] was 87 pM; in test [3] it was less than 5000 pM.
The matching figures for `Cc1cc2cc(n1)-c1cnn(C)c1OCCC[C@@H](C1CC1)CN1/C(=N/C2=O)Nc2ccc(NC(=O)CN(C)C)cc21` [Example 111]: 73 pM and less than 5000 pM.
Take `CNCCCNc1ccc2c(c1)N/C1=N\C(=O)c3cc(C)nc(c3)-c3cnn(C)c3OCCC[C@@H](C3CC3)CN12` [Example 49]: the IC50 in test [2] was found to be 39 pM; in test [1], 30 pM.
As for `Cc1cc2cc(n1)-c1cnn(C)c1OCCC[C@@H](C1CC1)CN1/C(=N/C2=O)Nc2ccc(N[C@@H](C)CN3CCCCC3)cc21` [Example 142], the figures for the IC50 in test [2] and in test [3] were 79 pM and less than 5000 pM, respectively.
For `Cc1cc2cc(n1)-c1cnn(C)c1OCCC[C@@H](C1CC1)CN1/C(=N/C2=O)Nc2cc(NC3CNC3)ccc21` [Example 32], the results for the IC50 in test [2] and in test [1] were 13 pM and 10 pM, respectively.
With `Cc1cc2cc(n1)-c1cnn(C)c1OCCC[C@@H](C1CC1)CN1/C(=N/C2=O)Nc2cc(N[C@H](C)CN(C)C)ccc21` [Example 67], the values for the IC50 in test [2] and in test [3] were 83 pM and less than 5000 pM, respectively.
In the case of `Cc1cc2cc(n1)-c1cnn(C)c1OCCC[C@@H](C1CC1)CN1/C(=N/C2=O)Nc2cc(NCCN3CCCCC3)ccc21` [Example 73], the IC50 in test [3] was less than 5000 pM.
As for `Cc1cc2cc(n1)-c1cnn(C)c1OCCC[C@@H](C1CC1)CN1/C(=N/C2=O)Nc2cc(NC3C(C)(C)OC3(C)C)ccc21` [Example 31], the IC50 in test [2] stood at 31 pM; in test [1] it was 18 pM.
For `Cc1cc2cc(n1)-c1cnn(C)c1OCCC[C@@H](C1CC1)CN1/C(=N/C2=O)Nc2cc(NC3CCC3)ccc21` [Example 79], the results for the IC50 in test [2] and in test [1] were 153 pM and 28 pM, respectively.
`Cc1cc2cc(n1)-c1cnn(C)c1OCCC[C@@H](C1CC1)CN1/C(=N/C2=O)Nc2cc(NCCCN)ccc21` [Example 50]: the IC50 in test [2] was determined as 53 pM; in test [1], 38 pM.
